Measured values as given in publication PMC10256801, “A multicentric consortium study demonstrates that dimethylarginine dimethylaminohydrolase 2 is not a dimethylarginine dimethylaminohydrolase” (Nature Communications, 2023).

Target: T1, Dimethylarginine dimethylaminohydrolase 1 (DDAH1) (Homo sapiens, UniProt O94760)
T1 construct: N-terminal fusion protein with glutathione S-transferase (DDAH1-GST)
Experiment: MicroScale Thermophoresis (MST) with purified recombinant protein; hydrolysis to L-citrulline also measured
Settings: read-out: Binding status Kd (μM) ± confidence values

T1 sequence (O94760 whole entry, the tested form may be a part): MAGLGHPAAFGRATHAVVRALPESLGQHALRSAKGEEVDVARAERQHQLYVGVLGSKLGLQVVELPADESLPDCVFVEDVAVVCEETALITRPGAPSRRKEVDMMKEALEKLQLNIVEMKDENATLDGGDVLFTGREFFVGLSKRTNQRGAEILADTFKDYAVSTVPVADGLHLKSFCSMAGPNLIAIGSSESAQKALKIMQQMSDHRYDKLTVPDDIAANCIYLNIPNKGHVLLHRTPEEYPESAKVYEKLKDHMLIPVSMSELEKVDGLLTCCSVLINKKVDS

Kd: 4.27 ± 0.46 µM
SMILES: CN(C)C(=N)NCCC[C@H](N)C(=O)O [ADMA]
